From patent US20220265667A1 (priority 2019, published 2022)
pIC50: −log10 of the molar value. Where two headings read alike, the source gives them in different places.

Key:
[1] = test system: human nasal tissue mast cells activated with SCF; experiment: Ex vivo SCF-induced tryptase release (degranulation) of human nasal tissue mast cells; format: cell-based; conditions: for Tryptase: with SCF; for inhibition at 1 µM / inhibition at 3 µM / inhibition at 10 µM / inhibition at 30 µM / inhibition at 60 µM / inhibition at 150 µM / inhibition at 300 µM / pIC50: Homo sapiens, Mast cell; for inhibition at 1 µM / inhibition at 3 µM / inhibition at 10 µM / inhibition at 30 µM / inhibition at 60 µM / inhibition at 150 µM / inhibition at 300 µM: read-out: percentage inhibition of degranulation (tryptase); for pIC50: read-out: IC50 ex vivo inhibition of tryptase degranulation; for HillSlope / LogIC50: SCF
Excerpt: Fresh human nasal mucosa was used (middle nasal turbinate), which was surgically removed as standard procedure during nose correction surgeries (septorhinoplasty with conchotomy). Only tissues from those patients who had not previously received medication in the form of cortisone preparations or antihistamines were used. The removed tissue was cleansed immediately after the surgical removal with Epilife Medium (Thermo Fisher Scientific, No. […]500), referred to as “medium” in terms of ex vivo experiments, a chemically defined, serum-free full medium for epithelial cells and keratinocytes. The tissue was then cut into 12 pieces of equal size, cleansed again in the medium, and the exact fresh weight of the cut tissue pieces was determined for later normalization and then stored overnight in cold medium. The weight of the tissue pieces varied between 10 and 20 mg.
After an one hour of pre-incubation with the respective compositions i) or ii), 0.4 μg/ml stem cell growth factor (SCF, Peprotech) was added to each well—except for one well serving as the negative control—in order to induce tryptase degranulation. […] Immediately after the removal of 250 μl supernatant, the volume in each well was increased to the original level and the original composition by adding 250 μl of the respective composition i), and ii).
For the determination of the amount of degranulated tryptase, the frozen supernatants were thawed at 22° C. and then subjected to a tryptase ELISA Kit from Boster Biological Technology Co., Ltd (No. EZ0898, Assay Range: 156-10000 pg/ml, Sensitivity: <15 pg/ml) according to manufacturer's instructions, and the ELISA measurements were performed with the Multiskan Go instrument from Thermo Scientific and the SkanIt Re 4.1 software.
The statistical analysis was conducted in two steps. In a first step, the raw measurement values were normalized to 10 mg tissue. In a second step, a correction factor was introduced for all time points of supernatant removal to compensate for the 250 μl supernatant taken for analysis at each time and the subsequent re-addition of medium incl. factors. The statistical calculations were performed with Microsoft Excel 2010.
For the analysis, a non-linear regression (variable slope—4-parametric) was used. The program setting “Dose-Response-Inhibition” was applied for an automatic calculation, readout and display of the IC50 values.

[2] = test system: murine bone marrow-derived mast cells (BMMCs); experiment: In vitro release of Interleukin-6 (IL-6) from IgE-preloaded murine bone marrow-derived mast cells (ELISA); format: cell-based, mice; conditions: Mus musculus, BMMC, 3 h; read-out: percentage of inhibition of IL-6 release
Protocol: According to the technique established by Razin et al. (Proc. Natl. Acad. Sci. USA 1981, 78:2559-2561), bone marrow cells (1×10^6/ml) from 6 to 8 week old mice (129/Sv×C57BL/6) were cultured (37° C. and 5% CO2) as single cell suspensions in RPMI 1640 medium (Sigma-Aldrich, Munich, Germany) supplemented with 15% fetal calf serum (FCS), 1% X63Ag8-653-conditioned medium (Karasuyama and Melchers, Eur. J. Immunol. 1988, 18:97-104), 2 mM L-glutamine, 10 μM β-mercaptoethanol, 50 units/ml penicillin, and […] streptomycin. At weekly intervals, the non-adherent cells were reseeded at 5×10^5 cells/ml in fresh medium. After 4-6 weeks in culture, greater than 99% of the cells were KIT- and […] as assessed by fluorescence-activated cell sorting (FACS) using phycoerythrin-labeled anti-KIT antibodies (Pharmingen, Mississauga, Canada) and fluorescein isothiocyanate (FITC)-labelled hamster anti-mouse FcεRIα antibodies (eBioscience, Frankfurt, Germany), respectively. The resulting cells are called bone marrow-derived mast cells (BMMCs).
For degranulation studies, BMMCs were preloaded with 0.15 μg/ml IgE anti-DNP (dinitrophenyl; Sigma Aldrich, Munich, Germany) overnight at 37° C. The cells were then washed and resuspended in Tyrode's buffer (130 mM NaCl, 5 mM KCl, 1.4 mM CaCl2, 1 mM MgCl2, 5.6 mM glucose, and 0.1% bovine serum albumin (BSA) in 10 mM Hepes, pH 7.4).
Subsequently, the cells were left unstimulated (unst) or stimulated with 20 ng/ml Ag (dissolved in medium) for 3 h. Subsequently, the cells were pelleted by centrifugation and the resulting cell pellet was discarded. For the determination of the amount of degranulated IL-6, the respective supernatant obtained by centrifugation was subjected to an IL-6 ELISA according to the manufacturer's instructions (BD, Heidelberg, Germany). Experiments were performed in triplicate.

Which results are given for `CCNC1=Nc2ccc(Cl)cc2C(C)(c2ccccc2)O1` (racemic) [Etifoxine, 6-Chloro-2-N-ethyl-4-methyl-4-phenyl-4H-3,1-benzoxazine-2-amine]?
Tryptase ([1]; 1 μM Etifoxine, 120 min): 12.1 pg/ml/10 mg tissue; Tryptase ([1]; 1 μM Etifoxine, 240 min): 1113.7 pg/ml/10 mg tissue; Tryptase ([1]; 1 μM Etifoxine, 480 min): 1791.7 pg/ml/10 mg tissue; Tryptase ([1]; 1 μM Etifoxine, 1440 min): 5547.4 pg/ml/10 mg tissue; Tryptase ([1]; 3 μM Etifoxine, 120 min): 38.7 pg/ml/10 mg tissue; Tryptase ([1]; 3 μM Etifoxine, 240 min): 1030.3 pg/ml/10 mg tissue; Tryptase ([1]; 3 μM Etifoxine, 480 min): 1789.0 pg/ml/10 mg tissue; Tryptase ([1]; 3 μM Etifoxine, 1440 min): 5512.9 pg/ml/10 mg tissue; Tryptase ([1]; 10 μM Etifoxine, 120 min): 71.9 pg/ml/10 mg tissue; Tryptase ([1]; 10 μM Etifoxine, 240 min): 594.5 pg/ml/10 mg tissue; Tryptase ([1]; 10 μM Etifoxine, 480 min): 1284.9 pg/ml/10 mg tissue; Tryptase ([1]; 10 μM Etifoxine, 1440 min): 3185.9 pg/ml/10 mg tissue; Tryptase ([1]; 30 μM Etifoxine, 120 min): 109.4 pg/ml/10 mg tissue; Tryptase ([1]; 30 μM Etifoxine, 240 min): 449.9 pg/ml/10 mg tissue; Tryptase ([1]; 30 μM Etifoxine, 480 min): 979.7 pg/ml/10 mg tissue; Tryptase ([1]; 30 μM Etifoxine, 1440 min): 2400.2 pg/ml/10 mg tissue; Tryptase ([1]; 60 μM Etifoxine): 1218.2 pg/ml/10 mg tissue; Tryptase ([1]; 60 μM Etifoxine, 120 min): 152.7 pg/ml/10 mg tissue; Tryptase ([1]; 60 μM Etifoxine, 240 min): 345.9 pg/ml/10 mg tissue; Tryptase ([1]; 60 μM Etifoxine, 480 min): 689.7 pg/ml/10 mg tissue; Tryptase ([1]; 150 μM Etifoxine): 1040.1 pg/ml/10 mg tissue; Tryptase ([1]; 150 μM Etifoxine, 120 min): 163.3 pg/ml/10 mg tissue; Tryptase ([1]; 150 μM Etifoxine, 240 min): 576.8 pg/ml/10 mg tissue; Tryptase ([1]; 150 μM Etifoxine, 480 min): 1042.4 pg/ml/10 mg tissue; Tryptase ([1]; 300 μM Etifoxine, 120 min): 71.9 pg/ml/10 mg tissue; Tryptase ([1]; 300 μM Etifoxine, 240 min): 459.3 pg/ml/10 mg tissue; Tryptase ([1]; 300 μM Etifoxine, 480 min): 991.8 pg/ml/10 mg tissue; Tryptase ([1]; 300 μM Etifoxine, 1440 min): 559.4 pg/ml/10 mg tissue; inhibition at 1 µM ([1]; 4 h): 0%; inhibition at 3 µM ([1]; 4 h): 0%; inhibition at 10 µM ([1]; 4 h): 15%; inhibition at 30 µM ([1]; 4 h): 56%; inhibition at 60 µM ([1]; 4 h): 85%; inhibition at 150 µM ([1]; 4 h): 21%; inhibition at 300 µM ([1]; 4 h): 53%; inhibition at 1 µM ([1]; 8 h): 0%; inhibition at 3 µM ([1]; 8 h): 0%; inhibition at 10 µM ([1]; 8 h): 28%; inhibition at 30 µM ([1]; 8 h): 90%; inhibition at 60 µM ([1]; 8 h): 148%; inhibition at 150 µM ([1]; 8 h): 77%; inhibition at 300 µM ([1]; 8 h): 87%; pIC50 ([1]; 4 hours after SCF addition): 5.21; pIC50 ([1]; 8 hours after SCF addition): 5.04; HillSlope ([1]; Tryptase 4 h): −2.791; LogIC50 ([1]; Tryptase 4 h): 0.7865; HillSlope ([1]; Tryptase 8 h): −3.492; LogIC50 ([1]; Tryptase 8 h): 0.9578; inhibition of SCF-triggered tryptase release (degranulation) achieved (complete) ([1]; summary statement, mast cells of human nasal pieces): 100%; inhibition at 3 µM [2]: 20%; inhibition at 10 µM [2]: 48%; inhibition at 30 µM [2]: 92%
